Test results as given in patent publication US12262710B2, “Fungicidal compounds” (SYNGENTA CROP PROTECTION AG, priority 2019, dated 2025).

What was measured:
[1] = tested on: Puccinia recondita; assay: Example C: comparative activity against Puccinia recondita (brown rust), curative, wheat leaf segments; assay type: in vivo; details: 8 dpi
Method: Method; Wheat leaf segments are placed on agar in multiwell plates (24-well format). The leaf segments are inoculated with a spore suspension of the fungus and sprayed with test solutions 1 day after inoculation. After appropriate incubation the activity of a compound is assessed 8 dpi (days after inoculation) as curative fungicidal activity. The data are presented as the percentage of disease control of each compound for the biological tests and testing rates described below in table H.

[2] = tested on: Phakopsora pachyrhizi; assay: Example D: comparative activity against Phakopsora pachyrhizi (soybean rust), soybean plants sprayed, leaf disks cut from treated plants; assay type: in vivo; details: 0.1% OCHIMA, leaf disks cut one day after application, approx. 12 dpi
Method: Method: Soybean plants are sprayed in a spray chamber with formulated DMSO compound solutions which are diluted to the appropriate concentration with 0.1% […] (adjuvant comprising polyethoxylated sorbitol hexaoleate and tris(2-ethylhexyl) phosphate) just before spraying. Leaf disks are cut from treated plants and placed on agar into 24-well plates one day after application. After, the leaf disks are inoculated with a spore suspension of the fungus. After appropriate incubation the activity of a compound is assessed approx. 12 dpi (days after inoculation) as preventive fungicidal activity. The data are presented as the percentage of disease control of each compound for the biological tests and testing rates described below in Table 1.

[3] = tested on: Phakopsora pachyrhizi; assay: Example E: comparative activity against Phakopsora pachyrhizi (soybean rust), soybean leaf disks sprayed; assay type: in vivo; details: 0.025% Tween20, approx. 12 dpi
Method: Method: Compounds to be tested are prepared as DMSO solutions which are diluted to the appropriate concentration with 0.025% Tween20 just before spraying. Soybean leaf disks are placed on agar in multiwell plates (24-well format) and sprayed with test solutions. After drying, the leaf disks are inoculated with a spore suspension of the fungus. After appropriate incubation the activity of a compound is assessed approx. 12 dpi (days after inoculation) as preventive fungicidal activity. The data are presented as the percentage of disease control of each compound for the biological tests and testing rates described below in Table J.

[4] = tested on: Erysiphe graminis f. sp. tritici; assay: Erysiphe graminis f. sp. tritici (wheat powdery mildew), wheat leaf segments, preventive; assay type: in vivo; details: Blumeria graminis, foliar, 168 h, 7 dpi, compared to untreated control
Method: (§1) Wheat leaf segments are placed on agar in multiwell plates (24-well format) and sprayed with test solutions. After drying, the leaf disks are inoculated with spores of the fungus. After appropriate incubation the activity of a compound is assessed 7 dpi (days post inoculation) as preventive fungicidal activity.

[5] = tested on: Monographella nivalis; assay: Monographella nivalis syn. Microdochium nivale (snow mould, foot rot of cereals), liquid culture growth inhibition; assay type: cell-based; details: nutrient broth (PDB), 72 hrs, photometric at 620 nm, compared to untreated control
Method: Conidia of the fungus from cryogenic storage were directly mixed into nutrient broth (PDB potato dextrose broth). A DMSO solution of the test compounds was placed into a microtiter plate (96-well format) and the nutrient broth containing the fungal spores was added to it. The test plates were incubated at 24° C. and the inhibition of growth was determined photometrically after 72 hrs at 620 nm. […] Cercospora arachidicola (Brown Leaf Spot of Peanut): […]

[6] = tested on: Mycosphaerella arachidis; assay: Mycosphaerella arachidis syn. Cercospora arachidicola (brown leaf spot of peanut), liquid culture growth inhibition; assay type: cell-based; details: nutrient broth (PDB), approximately 5-6 days, photometric at 620 nm, compared to untreated control
Method: Conidia of the fungus from cryogenic storage were directly mixed into nutrient broth (PDB potato dextrose broth). A DMSO solution of the test compounds was placed into a microtiter plate (96-well format) and the nutrient broth containing the fungal spores was added to it. The test plates were incubated at 24° C. and the inhibition of growth was determined photometrically after approximately 5-6 […] at 620 nm.

[7] = tested on: Puccinia recondita f. sp. tritici; assay: Puccinia recondita (brown rust), preventative, wheat leaf segments; assay type: in vivo; details: foliar, 192 h, 8 dpi, compared to untreated control
Method: as §1, with “segments” for “disks”, “a spore suspension” for “spores”, “8” for “7”, “after” for “post”, “preventative” for “preventive”

[8] = tested on: Glomerella lagenarium; assay: Glomerella lagenarium syn. Colletotrichum lagenarium (anthracnose of cucurbits), liquid culture growth inhibition; assay type: cell-based; details: Colletotrichum orbiculare, nutrient broth (PDB), 72 hrs, photometric at 620 nm, compared to untreated control
Method: Glomerella lagenarium Syn. Colletotrichum lagenarium (Anthracnose of Cucurbits): Conidia of the fungus from cryogenic storage were directly mixed into nutrient broth (PDB potato dextrose broth). A DMSO solution of the test compounds was placed into a microtiter plate (96-well format) and the nutrient broth containing the fungal spores was added to it. The test plates were incubated at 24° C. and the inhibition of growth was determined photometrically after 72 hrs at 620 nm. […]

[9] = tested on: Plasmopara viticola; assay: Plasmopara viticola (downy mildew of grapevine), grape vine leaf disks, preventive; assay type: in vivo; details: foliar, 168 h, 7 dpi, compared to untreated control
Method: as §1, with “Grape vine” for “Wheat”, “disks” for “segments”, “a spore suspension” for “spores”, “after” for “post”

[10] = tested on: Pyricularia oryzae; assay: whole plant or invertebrate; assay type: in vivo; details: foliar, 120 h, read-out: control of Pyricularia oryzae
[11] = tested on: Phakopsora pachyrhizi; assay: Phakopsora pachyrhizi (soybean rust), soybean leaf disks, preventive; assay type: in vivo; details: foliar, 288 h, approx. 12 dpi, compared to untreated control
Method: as §1, with “Soybean” for “Wheat”, “disks” for “segments”, “a spore suspension” for “spores”, “approx. 12” for “7”, “after” for “post”

[12] = tested on: Puccinia recondita f. sp. tritici; assay: Puccinia recondita (brown rust), curative, wheat leaf segments; assay type: in vivo; details: foliar, 192 h, sprayed 1 day after inoculation, 8 dpi, compared to untreated control
Method: Wheat leaf segments are placed on agar in multiwell plates (24-well format). The leaf segments are inoculated with a spore suspension of the fungus and sprayed with test solutions 1 day after inoculation. After appropriate incubation the activity of a compound is assessed 8 dpi (days after inoculation) as curative fungicidal activity.

| Compound | pest or weed control at 200 ppm [4] [%] | inhibition of growth at 20 ppm [5] [%] | inhibition of growth at 20 ppm [6] [%] | pest or weed control at 200 ppm [7] [%] | inhibition of growth at 20 ppm [8] [%] | pest or weed control at 200 ppm [9] [%] | other results |
| --- | --- | --- | --- | --- | --- | --- | --- |
| CO/C=C(\Oc1cc(C#CC2CCCCC2)ccc1C)C(=O)OC [Compound X-1, reference compound] | – | – | – | – | – | – | control (%) Puccinia recondita (Brown rust), curative ([1]; 20 ppm): 0%; control (%) Puccinia recondita (Brown rust), curative ([1]; 60 ppm): 0%; control (%) Puccinia recondita (Brown rust), curative ([1]; 200 ppm): 0%; control (%) Phakopsora pachyrhizi (Soybean rust) ([2]; 6 ppm): 0%; control (%) Phakopsora pachyrhizi (Soybean rust) ([2]; 20 ppm): 0%; control (%) Phakopsora pachyrhizi (Soybean rust) ([2]; 60 ppm): 0%; control (%) Phakopsora pachyrhizi (Soybean rust) ([2]; 200 ppm): 63%; control (%) Phakopsora pachyrhizi (Soybean rust) ([3]; 0.6 ppm): 0%; control (%) Phakopsora pachyrhizi (Soybean rust) ([3]; 2 ppm): 0%; control (%) Phakopsora pachyrhizi (Soybean rust) ([3]; 6 ppm): 35%; control (%) Phakopsora pachyrhizi (Soybean rust) ([3]; 20 ppm): 80%; control (%) Phakopsora pachyrhizi (Soybean rust) ([3]; 60 ppm): 100%; control (%) Phakopsora pachyrhizi (Soybean rust) ([3]; 200 ppm): 100% |
| CO/C=C(\Oc1cccc(C(C)(C)C)c1)C(=O)OC [Compound X-2, reference compound] | – | – | – | – | – | – | control (%) Puccinia recondita (Brown rust), curative ([1]; 20 ppm): 0%; control (%) Puccinia recondita (Brown rust), curative ([1]; 60 ppm): 0%; control (%) Puccinia recondita (Brown rust), curative ([1]; 200 ppm): 0%; control (%) Phakopsora pachyrhizi (Soybean rust) ([2]; 6 ppm): 0%; control (%) Phakopsora pachyrhizi (Soybean rust) ([2]; 20 ppm): 0%; control (%) Phakopsora pachyrhizi (Soybean rust) ([2]; 60 ppm): 0%; control (%) Phakopsora pachyrhizi (Soybean rust) ([2]; 200 ppm): 0%; control (%) Phakopsora pachyrhizi (Soybean rust) ([3]; 0.6 ppm): 0%; control (%) Phakopsora pachyrhizi (Soybean rust) ([3]; 2 ppm): 0%; control (%) Phakopsora pachyrhizi (Soybean rust) ([3]; 6 ppm): 0%; control (%) Phakopsora pachyrhizi (Soybean rust) ([3]; 20 ppm): 0%; control (%) Phakopsora pachyrhizi (Soybean rust) ([3]; 60 ppm): 10%; control (%) Phakopsora pachyrhizi (Soybean rust) ([3]; 200 ppm): 10% |
| CO/C=C(\Oc1cc(C2CCC(C(F)(F)F)CC2)ccc1C)C(=O)OC (centres unmarked) [E.1, methyl (Z)-3-methoxy-2-[2-methyl-5-[4-(trifluoromethyl)cyclohexyl]phenoxy] prop-2-enoate] | ≥ 80 | ≥ 80 | ≥ 80 | ≥ 80 | – | – | – |
| CO/C=C(\Oc1cc(C2CCCCCC2)ccc1C)C(=O)OC [E.3, methyl (Z)-2-(5-cyclohepty1-2-methyl-phenoxy)-3-methoxy-prop-2-enoate] | ≥ 80 | ≥ 80 | ≥ 80 | ≥ 80 | ≥ 80 | ≥ 80 | pest or weed control at 200 ppm [10]: ≥ 80% |
| CO/C=C(\Oc1cc(C2CCC(F)(F)CC2)ccc1C)C(=O)OC [E.6, methyl (Z)-2-[5-(4,4-difluorocyclohexyl)-2-methyl-phenoxy]-3-methoxy-prop-2-enoate] | ≥ 80 | ≥ 80 | ≥ 80 | ≥ 80 | ≥ 80 | ≥ 80 | pest or weed control at 200 ppm [10]: ≥ 80% |
| CO/C=C(\Oc1cc(C2CCCCC2)ccc1Br)C(=O)OC [E.8, methyl (Z)-2-(2-bromo-5-cyclohexyl-phenoxy)-3-methoxy-prop-2-enoate] | ≥ 80 | ≥ 80 | ≥ 80 | ≥ 80 | – | ≥ 80 | – |
| CO/C=C(\Oc1cc(C2CCCCC2)ccc1OC)C(=O)OC [E.10, methyl (Z)-2-(5-cyclohexy1-2-methoxy-phenoxy)-3-methoxy-prop-2-enoate] | ≥ 80 | ≥ 80 | ≥ 80 | ≥ 80 | – | ≥ 80 | – |
| CO/C=C(\Oc1cc(C2CCCCC2)ccc1F)C(=O)OC [E.11, methyl (Z)-2-(5-cyclohexy1-2-fluoro-phenoxy)-3-methoxy-prop-2-enoate] | ≥ 80 | ≥ 80 | ≥ 80 | – | ≥ 80 | ≥ 80 | – |
| CO/C=C(\Oc1cc(C2CC2)ccc1C)C(=O)OC [E.14, methyl (Z)-2-(5-cyclopropy1-2-methyl-phenoxy)-3-methoxy-prop-2-enoate] | ≥ 80 | ≥ 80 | ≥ 80 | ≥ 80 | ≥ 80 | ≥ 80 | pest or weed control at 60 ppm [11]: ≥ 70% |
| CO/C=C(\Oc1cc(C2CCC(C(C)C)CC2)ccc1C)C(=O)OC (centres unmarked) [E.17, methyl (Z)-2-[5-(4-isopropylcyclohexyl)-2-methyl-phenoxy]-3-methoxy-prop-2-enoate] | ≥ 80 | ≥ 80 | ≥ 80 | – | ≥ 80 | – | – |
| CO/C=C(\Oc1cc(C2CCC(OC)CC2)ccc1C)C(=O)OC (centres unmarked) [E.19, methyl (Z)-3-methoxy-2-[5-(4-methoxycyclohexyl)-2-methyl-phenoxy]prop-2-enoate] | ≥ 80 | ≥ 80 | ≥ 80 | ≥ 80 | ≥ 80 | ≥ 80 | pest or weed control at 200 ppm [12]: ≥ 80% |
| CO/C=C(\Oc1cc(C2=CCCCCC2)ccc1C)C(=O)OC [F.5, methyl (Z)-2-[5-(cyclohepten-1-yl)-2-methyl-phenoxy]-3-methoxy-prop-2-enoate] | ≥ 80 | ≥ 80 | ≥ 80 | – | ≥ 80 | ≥ 80 | – |
| CO/C=C(\Oc1cc(C2=CCC(O)CC2)ccc1C)C(=O)OC (centres unmarked) [F.8, methyl (Z)-2-[5-(4-hydroxycyclohexen-1-yl)-2-methyl-phenoxy]-3-methoxy-prop-2-enoate] | ≥ 80 | ≥ 80 | ≥ 80 | ≥ 80 | – | – | – |
| CO/C=C(\Oc1cc(C2=CCC(C)(C)CC2)ccc1C)C(=O)OC [F.10, methyl (Z)-2-[5-(4,4-dimethylcyclohexen-1-yl)-2-methyl-phenoxy]-3-methoxy-prop-2-enoate] | ≥ 80 | ≥ 80 | ≥ 80 | ≥ 80 | ≥ 80 | ≥ 80 | – |
